Data from the NIST ThermoML archive (doi:10.1016/j.jct.2005.07.009).
± gives the expanded uncertainty stated by the source.

What was measured:
[1] = xn = mol fraction of the nth substance listed; settings: 298.15 K, 101 kPa, Liquid, Vibrating tube method
[2] = excess molar enthalpy (molar enthalpy of mixing); xn = mol fraction of the nth substance listed; settings: 298.15 K, 101 kPa, Liquid

Work on BrCCBr [1,2-dibromoethane] + CCOC(=O)CC yielded a mass density ([1]; x2 = 0.0479) of 2086.59 ± 1.4 kg/m3, a mass density ([1]; x2 = 0.0959) of 2007.68 ± 1.5 kg/m3 and a mass density ([1]; x2 = 0.1904) of 1859.96 ± 1.8 kg/m3. For the same molecule, the mass density ([1]; x2 = 0.2852) was 1720.53 ± 2 kg/m3, the mass density ([1]; x2 = 0.3448) was 1636.9 ± 2.1 kg/m3 and the mass density ([1]; x2 = 0.4532) was 1492.57 ± 2.3 kg/m3. It also gave a mass density ([1]; x2 = 0.5156) of 1413.6 ± 2.3 kg/m3, a mass density ([1]; x2 = 0.5836) of 1330.59 ± 2.4 kg/m3 and a mass density ([1]; x2 = 0.6423) of 1261.58 ± 2.4 kg/m3. It also gave a mass density ([1]; x2 = 0.7044) of 1190.86 ± 2.4 kg/m3, a mass density ([1]; x2 = 0.7717) of 1116.79 ± 2.4 kg/m3 and a mass density ([1]; x2 = 0.8366) of 1047.86 ± 2.4 kg/m3. It also gave a mass density ([1]; x2 = 0.9155) of 967.12 ± 2.4 kg/m3, an excess molar enthalpy ([2]; x2 = 0.0408) of 0.0123 ± 0.0017 kJ/mol and an excess molar enthalpy ([2]; x2 = 0.0876) of 0.0231 ± 0.0019 kJ/mol. It also gave an excess molar enthalpy ([2]; x2 = 0.1399) of 0.0266 ± 0.002 kJ/mol, an excess molar enthalpy ([2]; x2 = 0.1925) of 0.0207 ± 0.0019 kJ/mol and an excess molar enthalpy ([2]; x2 = 0.2463) of 0.0052 ± 0.0016 kJ/mol. For the same molecule, the excess molar enthalpy ([2]; x2 = 0.3001) was -0.0207 ± 0.0019 kJ/mol, the excess molar enthalpy ([2]; x2 = 0.3515) was -0.0478 ± 0.0023 kJ/mol and the excess molar enthalpy ([2]; x2 = 0.3996) was -0.0756 ± 0.0029 kJ/mol. For the same molecule, the excess molar enthalpy ([2]; x2 = 0.4154) was -0.0859 ± 0.0032 kJ/mol, the excess molar enthalpy ([2]; x2 = 0.4446) was -0.101 ± 0.0035 kJ/mol and the excess molar enthalpy ([2]; x2 = 0.4644) was -0.115 ± 0.0038 kJ/mol. The excess molar enthalpy ([2]; x2 = 0.486) was -0.126 ± 0.0041 kJ/mol, the excess molar enthalpy ([2]; x2 = 0.522) was -0.144 ± 0.0045 kJ/mol and the excess molar enthalpy ([2]; x2 = 0.5865) was -0.16 ± 0.0049 kJ/mol. The excess molar enthalpy ([2]; x2 = 0.6595) was -0.156 ± 0.0048 kJ/mol, the excess molar enthalpy ([2]; x2 = 0.7397) was -0.138 ± 0.0044 kJ/mol and the excess molar enthalpy ([2]; x2 = 0.827) was -0.108 ± 0.0037 kJ/mol. The excess molar enthalpy ([2]; x2 = 0.9159) was -0.0683 ± 0.0028 kJ/mol.
Work on BrCCBr [1,2-dibromoethane] + CCOC(C)=O yielded a mass density ([1]; x2 = 0.0526) of 2091.79 ± 1.4 kg/m3, a mass density ([1]; x2 = 0.1032) of 2019.48 ± 1.6 kg/m3 and a mass density ([1]; x2 = 0.1562) of 1945.11 ± 1.7 kg/m3. It also gave a mass density ([1]; x2 = 0.2107) of 1869.55 ± 1.8 kg/m3, a mass density ([1]; x2 = 0.2686) of 1790.65 ± 2 kg/m3 and a mass density ([1]; x2 = 0.4371) of 1568.65 ± 2.3 kg/m3. It also gave a mass density ([1]; x2 = 0.4987) of 1490.07 ± 2.4 kg/m3, a mass density ([1]; x2 = 0.6182) of 1341.18 ± 2.5 kg/m3 and a mass density ([1]; x2 = 0.6799) of 1266.02 ± 2.5 kg/m3. For the same molecule, the mass density ([1]; x2 = 0.7399) was 1194.16 ± 2.5 kg/m3, the mass density ([1]; x2 = 0.8065) was 1115.57 ± 2.5 kg/m3 and the mass density ([1]; x2 = 0.8705) was 1041.22 ± 2.5 kg/m3. It also gave a mass density ([1]; x2 = 0.9341) of 968.46 ± 2.4 kg/m3, an excess molar enthalpy ([2]; x2 = 0.0529) of 0.0259 ± 0.002 kJ/mol and an excess molar enthalpy ([2]; x2 = 0.1142) of 0.0398 ± 0.0022 kJ/mol. The excess molar enthalpy ([2]; x2 = 0.1754) was 0.0463 ± 0.0023 kJ/mol, the excess molar enthalpy ([2]; x2 = 0.2376) was 0.0433 ± 0.0022 kJ/mol and the excess molar enthalpy ([2]; x2 = 0.2976) was 0.0379 ± 0.0021 kJ/mol. It also gave an excess molar enthalpy ([2]; x2 = 0.3548) of 0.0269 ± 0.002 kJ/mol, an excess molar enthalpy ([2]; x2 = 0.4086) of 0.0117 ± 0.0018 kJ/mol and an excess molar enthalpy ([2]; x2 = 0.4579) of -0.0047 ± 0.0016 kJ/mol. The excess molar enthalpy ([2]; x2 = 0.5045) was -0.0213 ± 0.0019 kJ/mol, the excess molar enthalpy ([2]; x2 = 0.536) was -0.0344 ± 0.0021 kJ/mol and the excess molar enthalpy ([2]; x2 = 0.5453) was -0.0367 ± 0.0021 kJ/mol. It also gave an excess molar enthalpy ([2]; x2 = 0.5935) of -0.0555 ± 0.0025 kJ/mol, an excess molar enthalpy ([2]; x2 = 0.6556) of -0.0699 ± 0.0028 kJ/mol and an excess molar enthalpy ([2]; x2 = 0.7113) of -0.0736 ± 0.0029 kJ/mol. For the same molecule, the excess molar enthalpy ([2]; x2 = 0.7914) was -0.0672 ± 0.0028 kJ/mol, the excess molar enthalpy ([2]; x2 = 0.8635) was -0.0499 ± 0.0024 kJ/mol and the excess molar enthalpy ([2]; x2 = 0.9367) was -0.0252 ± 0.002 kJ/mol.
With CCCCC(=O)OCC [ethyl pentanoate] + BrCCBr the mass density ([1]; x1 = 0.0379) was 2085.1 ± 1.3 kg/m3, the mass density ([1]; x1 = 0.0766) was 2004.73 ± 1.4 kg/m3 and the mass density ([1]; x1 = 0.1567) was 1851.43 ± 1.6 kg/m3. For the same molecule, the mass density ([1]; x1 = 0.1993) was 1776.2 ± 1.7 kg/m3, the mass density ([1]; x1 = 0.2427) was 1703.76 ± 1.8 kg/m3 and the mass density ([1]; x1 = 0.2945) was 1622.25 ± 1.8 kg/m3. For the same molecule, the mass density ([1]; x1 = 0.3695) was 1512.8 ± 1.9 kg/m3, the mass density ([1]; x1 = 0.5222) was 1317.39 ± 2.1 kg/m3 and the mass density ([1]; x1 = 0.6601) was 1166.3 ± 2.2 kg/m3. It also gave a mass density ([1]; x1 = 0.7313) of 1096.12 ± 2.2 kg/m3, a mass density ([1]; x1 = 0.8119) of 1022.28 ± 2.3 kg/m3 and a mass density ([1]; x1 = 0.9074) of 941.5 ± 2.3 kg/m3. The excess molar enthalpy ([2]; x1 = 0.0286) was 0.0199 ± 0.0019 kJ/mol, the excess molar enthalpy ([2]; x1 = 0.0632) was 0.0314 ± 0.002 kJ/mol and the excess molar enthalpy ([2]; x1 = 0.103) was 0.0404 ± 0.0022 kJ/mol. For the same molecule, the excess molar enthalpy ([2]; x1 = 0.1465) was 0.0433 ± 0.0022 kJ/mol, the excess molar enthalpy ([2]; x1 = 0.1918) was 0.0425 ± 0.0022 kJ/mol and the excess molar enthalpy ([2]; x1 = 0.2375) was 0.0355 ± 0.0021 kJ/mol. The excess molar enthalpy ([2]; x1 = 0.2837) was 0.0175 ± 0.0018 kJ/mol, the excess molar enthalpy ([2]; x1 = 0.3283) was -0.0041 ± 0.0016 kJ/mol and the excess molar enthalpy ([2]; x1 = 0.3711) was -0.0203 ± 0.0019 kJ/mol. It also gave an excess molar enthalpy ([2]; x1 = 0.4026) of -0.0345 ± 0.0021 kJ/mol, an excess molar enthalpy ([2]; x1 = 0.4465) of -0.0468 ± 0.0023 kJ/mol and an excess molar enthalpy ([2]; x1 = 0.4938) of -0.0595 ± 0.0026 kJ/mol. The excess molar enthalpy ([2]; x1 = 0.5538) was -0.0689 ± 0.0028 kJ/mol, the excess molar enthalpy ([2]; x1 = 0.6297) was -0.0744 ± 0.0029 kJ/mol and the excess molar enthalpy ([2]; x1 = 0.7132) was -0.0733 ± 0.0029 kJ/mol. The excess molar enthalpy ([2]; x1 = 0.8085) was -0.0599 ± 0.0026 kJ/mol and the excess molar enthalpy ([2]; x1 = 0.9099) was -0.0353 ± 0.0021 kJ/mol.
Molecule BrCCCCCCBr [1,6-dibromohexane] + CCOC(=O)CC has a mass density ([1]; x2 = 0.0785) of 1558.6 ± 2.6 kg/m3, a mass density ([1]; x2 = 0.1542) of 1515.02 ± 2.6 kg/m3 and a mass density ([1]; x2 = 0.223) of 1474.07 ± 2.6 kg/m3. The mass density ([1]; x2 = 0.2897) was 1432.85 ± 2.7 kg/m3, the mass density ([1]; x2 = 0.3566) was 1390.07 ± 2.7 kg/m3 and the mass density ([1]; x2 = 0.4169) was 1350.15 ± 2.7 kg/m3. The mass density ([1]; x2 = 0.5364) was 1266.98 ± 2.7 kg/m3, the mass density ([1]; x2 = 0.595) was 1224.16 ± 2.7 kg/m3 and the mass density ([1]; x2 = 0.6523) was 1181.7 ± 2.7 kg/m3. The mass density ([1]; x2 = 0.7055) was 1139.41 ± 2.6 kg/m3, the mass density ([1]; x2 = 0.7573) was 1097.77 ± 2.6 kg/m3 and the mass density ([1]; x2 = 0.8052) was 1058.09 ± 2.6 kg/m3. The mass density ([1]; x2 = 0.8583) was 1012.69 ± 2.5 kg/m3, the mass density ([1]; x2 = 0.9041) was 972.41 ± 2.5 kg/m3 and the excess molar enthalpy ([2]; x2 = 0.0655) was 0.0441 ± 0.0023 kJ/mol. For the same molecule, the excess molar enthalpy ([2]; x2 = 0.1421) was 0.0769 ± 0.003 kJ/mol, the excess molar enthalpy ([2]; x2 = 0.2176) was 0.0982 ± 0.0034 kJ/mol and the excess molar enthalpy ([2]; x2 = 0.2889) was 0.11 ± 0.0037 kJ/mol. It also gave an excess molar enthalpy ([2]; x2 = 0.3565) of 0.112 ± 0.0038 kJ/mol, an excess molar enthalpy ([2]; x2 = 0.4183) of 0.107 ± 0.0036 kJ/mol and an excess molar enthalpy ([2]; x2 = 0.4746) of 0.0944 ± 0.0034 kJ/mol. The excess molar enthalpy ([2]; x2 = 0.5242) was 0.0786 ± 0.003 kJ/mol, the excess molar enthalpy ([2]; x2 = 0.5687) was 0.062 ± 0.0026 kJ/mol and the excess molar enthalpy ([2]; x2 = 0.5968) was 0.0523 ± 0.0024 kJ/mol. It also gave an excess molar enthalpy ([2]; x2 = 0.6497) of 0.0374 ± 0.0022 kJ/mol, an excess molar enthalpy ([2]; x2 = 0.7061) of 0.0253 ± 0.002 kJ/mol and an excess molar enthalpy ([2]; x2 = 0.7663) of 0.018 ± 0.0019 kJ/mol. It also gave an excess molar enthalpy ([2]; x2 = 0.8256) of 0.0129 ± 0.0018 kJ/mol, an excess molar enthalpy ([2]; x2 = 0.8846) of 0.0079 ± 0.0017 kJ/mol and an excess molar enthalpy ([2]; x2 = 0.9439) of 0.0029 ± 0.0017 kJ/mol.
